Data reported in ChEMBL document CHEMBL4342414, “Activity of 2,6,9-trisubstituted purines as potent PDGFRα kinase inhibitors with antileukaemic activity” (Eur J Med Chem, 2019).

Assays:
K562 = test: Cytotoxicity against human K562 cells assessed as growth inhibition after 72 hrs by resazurin dye-based fluorescence analysis; assay type: functional; conditions: K562, 72 h
[1] = Cytotoxicity against human BJ cells assessed as growth inhibition after 72 hrs by resazurin dye-based fluorescence analysis; assay type: cell-based
HCC827 = test: Cytotoxicity against human HCC827 cells assessed as growth inhibition after 72 hrs by resazurin dye-based fluorescence analysis; assay type: functional; conditions: HCC827, 72 h
EOL1 = test: Cytotoxicity against FIP1L1-PDGFRA positive human EOL-1 cells assessed as growth inhibition after 72 hrs by resazurin dye-based fluorescence analysis; assay type: functional; conditions: EOL1, 72 h
[2] = Cytotoxicity against human CEM cells assessed as growth inhibition after 72 hrs by resazurin dye-based fluorescence analysis; assay type: cell-based; conditions: CEM (CCRF-CEM) cells
[3] = Selectivity index, ratio of GI50 for human BJ cells to GI50 for FIP1L1-PDGFRA positive human EOL-1 cells after 72 hrs by resazurin dye-based fluorescence analysis
[4] = target: Platelet-derived growth factor receptor alpha (Homo sapiens, UniProt P16234, V561D); test: biochemical; assay type: cell-based, Sf9
[5] = Chemical stability of compound; assay type: physicochemical

Platelet-derived growth factor receptor alpha, sequence (P16234 24-1089 V561D limits assumed): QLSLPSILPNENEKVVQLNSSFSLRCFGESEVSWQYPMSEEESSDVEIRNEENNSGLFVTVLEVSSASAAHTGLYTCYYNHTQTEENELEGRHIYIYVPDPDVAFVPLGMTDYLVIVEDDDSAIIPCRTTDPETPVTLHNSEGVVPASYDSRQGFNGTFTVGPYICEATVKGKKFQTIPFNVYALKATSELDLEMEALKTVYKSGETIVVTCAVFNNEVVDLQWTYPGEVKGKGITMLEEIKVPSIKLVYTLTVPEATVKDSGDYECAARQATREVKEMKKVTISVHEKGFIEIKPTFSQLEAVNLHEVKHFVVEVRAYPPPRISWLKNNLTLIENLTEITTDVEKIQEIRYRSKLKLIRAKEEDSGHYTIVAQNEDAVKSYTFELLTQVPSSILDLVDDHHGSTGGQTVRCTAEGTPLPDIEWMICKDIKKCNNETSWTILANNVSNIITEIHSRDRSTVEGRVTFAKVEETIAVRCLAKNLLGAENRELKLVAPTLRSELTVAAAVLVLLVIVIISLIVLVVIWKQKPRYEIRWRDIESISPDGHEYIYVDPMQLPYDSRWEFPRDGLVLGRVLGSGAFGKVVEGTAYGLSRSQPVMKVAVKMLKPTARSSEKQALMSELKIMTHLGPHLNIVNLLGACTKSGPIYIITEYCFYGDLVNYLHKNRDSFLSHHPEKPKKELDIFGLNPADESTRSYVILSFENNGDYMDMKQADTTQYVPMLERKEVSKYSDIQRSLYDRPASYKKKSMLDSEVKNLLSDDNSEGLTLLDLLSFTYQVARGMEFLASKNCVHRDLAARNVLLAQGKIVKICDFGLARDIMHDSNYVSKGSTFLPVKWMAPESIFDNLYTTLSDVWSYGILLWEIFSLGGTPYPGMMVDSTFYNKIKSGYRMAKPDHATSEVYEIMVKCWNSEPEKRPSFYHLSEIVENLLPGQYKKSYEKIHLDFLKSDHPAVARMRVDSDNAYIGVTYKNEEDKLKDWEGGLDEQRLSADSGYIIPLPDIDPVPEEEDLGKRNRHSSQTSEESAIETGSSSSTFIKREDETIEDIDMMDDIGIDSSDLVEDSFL

Structure (SMILES)	GI50 (K562) [nM]	GI50 at 72 h [1] [nM]	GI50 (HCC827) [nM]	GI50 (EOL1) [nM]	GI50 at 72 h [2] [nM]	RatioGI50 [3]	IC50 [4] [nM]	Stability [5]
N[C@H]1CC[C@H](Nc2nc(Nc3cccc(CN4CCOCC4)c3)c3ncn(C4CCCC4)c3n2)CC1	1280	14700	1180	12	1360			
N[C@H]1CC[C@H](Nc2nc(Nc3ccc(-c4cccs4)nc3)c3ncn(C4CCCC4)c3n2)CC1	574	2940	652	21	477			
N[C@H]1CC[C@H](Nc2nc(Nc3ccc(Oc4ccc(Br)cn4)cc3)c3ncn(C4CCCC4)c3n2)CC1	6080	> 40000	3730	122	6160			
N[C@H]1CC[C@H](Nc2nc(Nc3ccc(-c4ccoc4)nc3)c3ncn(C4CCCC4)c3n2)CC1	876	13100	632	17	619			
NCCCCNc1nc(Nc2ccc(Oc3nccs3)cc2)c2ncn(C3CCCC3)c2n1	5980	18600	6310	118	8640			
COc1ccc(-c2ccc(Nc3nc(N[C@H]4CC[C@H](N)CC4)nc4c3ncn4C3CCCC3)cn2)cc1	698	7230	581	25	544			
N[C@H]1CC[C@H](Nc2nc(Nc3ccc(N4CCN(Cc5ccccc5)CC4)cc3)c3ncn(C4CCC(O)C4)c3n2)CC1 (stereo partly drawn)	652	16900	840	11	540			
OCCCCNc1nc(Nc2ccc(CN3CCOCC3)cc2)c2ncn(CCCO)c2n1	4740	20800	10600	294	5170			
NCCCCNc1nc(Nc2ccccc2CN2CCOCC2)c2ncn(C3CCCC3)c2n1	12200	37500	26300	6410	25700	6	> 20000	
NCCCCNc1nc(Nc2ccc(N3CCN(Cc4ccccc4)CC3)cc2)c2ncn(C3CCC(O)C3)c2n1 (stereo not drawn)	1630	13200	2290	46	3670			
N[C@H]1CC[C@H](Nc2nc(Nc3cccc(CN4CCOCC4)c3)c3ncn(C4CCC(O)C4)c3n2)CC1 (stereo partly drawn)	1850	> 40000	1670	9	1650			
N[C@H]1CC[C@H](Nc2nc(Nc3ccc(-c4ccccc4O)cc3)c3ncn(C4CCCC4)c3n2)CC1	2080	9590	2530	53	1490			
NCCCCNc1nc(Nc2ccc(CN3CCOCC3)cc2)c2ncn(CCCO)c2n1	9360	35000	19000	138	8200			
OCCCCNc1nc(Nc2cccc(CN3CCOCC3)c2)c2ncn(C3CCCC3)c2n1	30400	25700	8130	282	11100			
N[C@H]1CC[C@H](Nc2nc(Nc3ccc(-n4cncn4)cc3)c3ncn(C4CCCC4)c3n2)CC1	1560	14700	1420	8	871			
OCCCCNc1nc(Nc2ccc(N3CCN(Cc4ccccc4)CC3)cc2)c2ncn(CCCO)c2n1	8670	> 40000	9800	1010	27900			
CC(C)(C)c1cc(NC(=O)Nc2ccc(-c3cn4c(n3)sc3cc(OCCN5CCOCC5)ccc34)cc2)no1 [QUIZARTINIB]	> 40000	> 40000	> 40000	< 0.5	> 40000			
c1csc(Oc2ccc(Nc3nc(N4CCOCC4)nc4c3ncn4C3CCCC3)cc2)n1	> 40000	> 40000	15400	347	> 40000			
OCCCCNc1nc(Nc2ccc(CN3CCOCC3)cc2)c2ncn(C3CCC(O)C3)c2n1 (stereo not drawn)	3780	26100	3260	162	6430			
N[C@H]1CC[C@H](Nc2nc(Nc3ccccc3CN3CCOCC3)c3ncn(CCCO)c3n2)CC1	> 40000	> 40000	> 40000	10600	> 40000	>4	> 20000	
OCCCCNc1nc(Nc2ccc(Oc3nccs3)cc2)c2ncn(C3CCCC3)c2n1	6080	23500	6050	489	13400			
N[C@H]1CC[C@H](Nc2nc(Nc3ccc(CN4CCOCC4)cc3)c3ncn(C4CCC(O)C4)c3n2)CC1 (stereo partly drawn)	1040	> 40000	801	8	1420			

Structure (SMILES)	GI50 (K562) [nM]	GI50 at 72 h [1] [nM]	GI50 (HCC827) [nM]	GI50 (EOL1) [nM]	GI50 at 72 h [2] [nM]	RatioGI50 [3]	IC50 [4] [nM]	Stability [5]
OCCCNc1nc(Nc2ccc(Oc3nccs3)cc2)c2ncn(C3CCCC3)c2n1	11300	34100	6490	442	23000			
OCCCCNc1nc(Nc2ccc(N3CCN(Cc4ccccc4)CC3)cc2)c2ncn(C3CCC(O)C3)c2n1 (stereo not drawn)	3720	23800	3960	223	9080			
COc1ccccc1-c1ccc(Nc2nc(N[C@H]3CC[C@H](N)CC3)nc3c2ncn3C2CCCC2)cn1	553	6200	638	14	460			
N[C@H]1CC[C@H](Nc2nc(Nc3ccc(-c4ccccc4O)nc3)c3ncn(C4CCCC4)c3n2)CC1	500	6350	653	85	617			
N[C@H]1CC[C@H](Nc2nc(Nc3ccc(CN4CCOCC4)cc3)c3ncn(CCCO)c3n2)CC1	9920	> 40000	18400	164	34500			
Nc1ccccc1-c1ccc(Nc2nc(N[C@H]3CC[C@H](N)CC3)nc3c2ncn3C2CCCC2)cc1	1070	12500	810	18	677			
N[C@H]1CC[C@H](Nc2nc(Nc3ccc(-n4cccn4)cc3)c3ncn(C4CCCC4)c3n2)CC1	982	10400	847	8	933			Unstable
NCCCCNc1nc(Nc2cccc(CN3CCOCC3)c2)c2ncn(C3CCCC3)c2n1	8400	22000	5370	61	8190			
N[C@H]1CC[C@H](Nc2nc(Nc3ccc(Oc4nccs4)cc3)c3ncn(C4CCCC4)c3n2)CC1	676	6850	692	8	650			
N[C@H]1CC[C@H](Nc2nc(Nc3ccc(N4CCN(Cc5ccccc5)CC4)cc3)c3ncn(CCCO)c3n2)CC1	2670	16500	2380	58	4560			
NCCCCNc1nc(Nc2ccc(N3CCN(Cc4ccccc4)CC3)cc2)c2ncn(CCCO)c2n1	2570	28500	6700	158	7570			
N[C@H]1CC[C@H](Nc2nc(Nc3ccc(Oc4ncccn4)cc3)c3ncn(C4CCCC4)c3n2)CC1	2270	16900	2720	20	1150			
N[C@H]1CC[C@H](Nc2nc(Nc3cccc(CN4CCOCC4)c3)c3ncn(CCCO)c3n2)CC1	> 40000	> 40000	25500	75	> 40000			
N[C@H]1CC[C@H](Nc2nc(Nc3ccc(N4CCN(Cc5ccccc5)CC4)cc3)c3ncn(C4CCCC4)c3n2)CC1	970	10000	918	22	582			
N[C@H]1CC[C@H](Nc2nc(Nc3ccccc3CN3CCOCC3)c3ncn(C4CCCC4)c3n2)CC1	4100	30400	22200	4520	18100	7	> 20000	
OCCCCNc1nc(Nc2ccc(CN3CCOCC3)cc2)c2ncn(C3CCCC3)c2n1		22800	2510	202	3480			
Cc1ccc(NC(=O)c2ccc(CN3CCN(C)CC3)cc2)cc1Nc1nccc(-c2cccnc2)n1 [IMATINIB]	730	> 40000	> 40000	< 0.5	35800	>80000		
NCCCCNc1nc(Nc2ccc(CN3CCOCC3)cc2)c2ncn(C3CCCC3)c2n1	2790	9540	2040	49	3040			
N[C@H]1CC[C@H](Nc2nc(Nc3ccc(-n4cnnc4)cc3)c3ncn(C4CCCC4)c3n2)CC1	1120	12800	865	5	671			Unstable
COc1ccccc1-c1ccc(Nc2nc(N[C@H]3CC[C@H](N)CC3)nc3c2ncn3C2CCCC2)cc1	2320	22800	2300	117	2350			
NCCCCNc1nc(Nc2ccc(CN3CCOCC3)cc2)c2ncn(C3CCC(O)C3)c2n1 (stereo not drawn)	2230	4900	3240	36	5510			
